In one assay the target is T1, CDK-4 (Homo sapiens, UniProt P11802).
T1 construct: purchased BPS Bioscience 79674
The assay is described as follows: Kinase-Glo Plus luminescence kinase inhibition assay, CDK-4. In kind it is biochemical. The following applies: 10 µM ATP, 30 °C, 40 min; mean ± SEM. As to the method:
The enzyme inhibition assay for the tested molecules was performed at BPS Bioscience Corporation, San Diego, CA, USA. The following materials served as the enzyme sources, Poly (Glu, Tyr) sodium salt (4:1, Glu:Tyr) (Sigma#P7244) served as the standardized substrate, and the Kinase-Glo Plus Luminescence kinase assay kit (Promega # V3772) was used. […] Glo Plus luminescence kinase assay kits. The assays were performed using Kinase-Glo Plus luminescence (Promega Corporation, Madison, WI, USA).
The tested molecules 9, 20, and indurbin were diluted to 100 µL in DMSO (10%), and 5 µL of the solution was added to a 50-µL enzyme reaction until the final concentration of DMSO was 1% in all of reactions. The enzymatic reactions were conducted at 30 °C for 40 min. The reaction mixture contained enzyme substrate and respective kinases. After the enzymatic reaction, 50 µL of enzyme-Glo Plus luminescence […] assay solution (Promega) was added to each reaction, and the plate was incubated for 5 min at room temperature. The luminescence signal was measured using a BioTek Synergy 2 microplate reader. The luminescence data were analyzed using the computer software GraphPad Prism. The difference between luminescence intensities in the absence of enzyme (Lut) and in the presence of enzyme (Luc) was defined as 100% activity (Lut − Luc). […] The IC50 value was determined using GraphPad Prism software. […]
Glo Plus luminescence kinase assay kits were used in these assays. […] The assay measures kinase activity by quantitating the amount of ATP remaining in the solution following kinase reaction. […] After the enzymatic reaction, 50 µL of Kinase-Glo Plus Luminescence kinase assay solution (Promega) was added to each reaction, and the plate was incubated for 5 min at room temperature. The luminescence signal was measured using a BioTek Synergy 2 microplate reader. […] The luminescence data were analyzed using the Graphpad Prism software.
A general note: Kinase-Glo reads ATP consumption through a luciferase reaction.

The next assay relates to HepG-2 cells. The assay is described as follows: DNA flow cytometry cell cycle analysis. Conditions: HepG-2, compound at its IC50, 24 h. In kind it is cell-based, human. Here is the method:
The HepG-2 cells were then collected by trypsinization, washed with PBS, and fixed. After that, treated cells were stained using the Cycle Test Plus DNA Reagent Kit (BD Biosciences, San Jose, CA, USA) according to the manufacturer’s instructions. The percentage of cell cycle distribution was calculated using CELLQUEST software 5.1 (Becton Dickinson Immuno-cytometry Systems, San Jose, CA, USA) (Table S4).
On the technique in general: In flow cytometry, cells or beads pass a laser one at a time.

The next assay concerns HepG2 cells. As to the kind of experiment: Annexin-V-FITC/PI apoptosis assay. In kind it is cell-based, human. Conditions: HepG2, compound at its IC50, 24 h. As to the method:
Then, the cells were washed with PBS and detached by trypsin. The detached cells were collected into a 15-mL centrifuged tube, washed with ice-cold PBS twice, and centrifuged at 1200 rpm for 5 min. A volume of 0.1 mL binding buffer was added to the treated HepG-2 cells, followed by adding 5 μL of annexin V-FITC and 5 μL of 50 μg/mL PI staining reagents. After mixing and reacting at 25 °C for 15 min in the dark, the apoptotic cell percentages were analyzed by a flow cytometer [FACS Calibur flow cytometer (BD Biosciences)] (Table S5).

The subject of a further assay is p21. As to the kind of experiment: ELISA of p21 in treated HepG-2 cells. In kind it is cell-based, human. The following applies: HepG-2, compound at its IC50, 24 h. As to the method: HepG2 cells were cultured in RPMI 10% + 5%FBS penicillin/streptomycin and were incubated at a humidity 5% CO2 and maintained at 37 °C. […] HepG2 cells were cultured as a monolayer in T-25 flasks and were seeded to attain 30% confluency prior to treatment. The main 100 mM stock dissolved in DMSO was diluted with the cell culture medium in order to reach the previously determined IC50 concentration of each of the three preparations. After that, HepG2 cells were collected via trypsinization and centrifuged at 10,000 rpm. The pellet was then rinsed with PBS and lysed in RIPA lysis buffer at 4 °C for 45 min, then centrifuged at 14,000 rpm for 20 min to remove the cellular debris. Lysates were then collected and stored at […] for protein determination. The levels of p53, p21, Fas-L, Bax, Bcl-2, and caspase 3/7 were assessed using the human P53 ELISA kit (Catalog No. ABIN6962151), P21 ELISA kit (Catalog No. ABIN6966175), Human Apoptosis Ligand (FAS-L), Bax ELISA kit, Human Factor-Related. Bcl-2 ELISA kit ELISA kit, and caspase3/7 ELISA kit (Elabscience Biotechnology Co., Wuhan, Hubei, China). The procedure of the used kits was done according to the manufacturer’s instructions. Briefly, equal amounts of cell lysates were loaded and then probed with specific antibodies. The samples were measured at 450 nm in ROBONEK P2000 ELISA reader. […]
A general note: In an ELISA, binding on a coated surface is turned into a signal by an enzyme label.

The next assay relates to Fas-L. The assay is described as follows: ELISA of Fas-L in treated HepG-2 cells. The following applies: for increase of Fas-L expression compared to untreated control: HepG-2, compound at its IC50, 24 h; for Concentration of Fas L: HepG-2, compound at its IC50, ± S.E.M, control 15.33±1.71. In kind it is cell-based, human. Here is the method: HepG2 cells were cultured in RPMI 10% + 5%FBS penicillin/streptomycin and were incubated at a humidity 5% CO2 and maintained at 37 °C. […] HepG2 cells were cultured as a monolayer in T-25 flasks and were seeded to attain 30% confluency prior to treatment. The main 100 mM stock dissolved in DMSO was diluted with the cell culture medium in order to reach the previously determined IC50 concentration of each of the three preparations. After that, HepG2 cells were collected via trypsinization and centrifuged at 10,000 rpm. The pellet was then rinsed with PBS and lysed in RIPA lysis buffer at 4 °C for 45 min, then centrifuged at 14,000 rpm for 20 min to remove the cellular debris. Lysates were then collected and stored at […] for protein determination. The levels of p53, p21, Fas-L, Bax, Bcl-2, and caspase 3/7 were assessed using the human P53 ELISA kit (Catalog No. ABIN6962151), P21 ELISA kit (Catalog No. ABIN6966175), Human Apoptosis Ligand (FAS-L), Bax ELISA kit, Human Factor-Related. Bcl-2 ELISA kit ELISA kit, and caspase3/7 ELISA kit (Elabscience Biotechnology Co., Wuhan, Hubei, China). The procedure of the used kits was done according to the manufacturer’s instructions. Briefly, equal amounts of cell lysates were loaded and then probed with specific antibodies. The samples were measured at 450 nm in ROBONEK P2000 ELISA reader. The analysis was confirmed with three different sets of extracts. All experiments were done in triplicate (Tables S6–S9).

T1 sequence (P11802 whole entry): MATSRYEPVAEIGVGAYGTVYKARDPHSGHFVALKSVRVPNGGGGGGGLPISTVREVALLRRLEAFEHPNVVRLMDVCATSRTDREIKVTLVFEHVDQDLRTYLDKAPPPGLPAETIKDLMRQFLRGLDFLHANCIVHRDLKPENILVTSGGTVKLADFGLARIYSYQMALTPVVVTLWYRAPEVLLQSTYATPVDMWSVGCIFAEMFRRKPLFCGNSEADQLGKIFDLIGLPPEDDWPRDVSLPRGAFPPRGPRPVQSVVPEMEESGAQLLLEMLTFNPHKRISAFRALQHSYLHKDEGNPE
T1 sequence (P30281 whole entry partner): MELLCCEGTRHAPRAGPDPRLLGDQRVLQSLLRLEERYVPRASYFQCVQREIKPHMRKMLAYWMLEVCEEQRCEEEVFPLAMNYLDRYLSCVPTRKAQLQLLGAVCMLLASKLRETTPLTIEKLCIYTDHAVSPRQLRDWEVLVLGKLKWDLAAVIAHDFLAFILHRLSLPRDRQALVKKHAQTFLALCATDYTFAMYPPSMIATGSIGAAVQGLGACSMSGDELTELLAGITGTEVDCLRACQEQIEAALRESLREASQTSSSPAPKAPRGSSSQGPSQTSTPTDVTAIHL

For orientation: IC50 means the concentration needed to halve the response being measured. Consider `O=C1Nc2ccc(Cl)cc2C1=Nc1ccc2nc[nH]c(=O)c2c1` [Compound 9, 6-(5-Chloro-2-oxo-1,2-dihydro-indol-3-ylideneamino)-3H-quinazolin-4-one], for which the IC50 on CDK-4 turned out to be 36.4 ± 4.52 nM. In addition, in the assay on HepG-2 cells, the “Cell cycle distribution (%) G0-G1” value turned out to be 67.16%, the “Cell cycle distribution (%) G2-M” value came to 20.75%, the “Cell cycle distribution (%) S” value stood at 32.03% and the “Cell cycle distribution (%) sub-G0/G1” value turned out to be 13.82%. Further, in the assay on HepG2 cells, the “Apoptosis Early” value was determined as 5.05%, the “Apoptosis Late” value is listed as 3.72%, the “Apoptosis Total” value turned out to be 8.77% and the Necrosis came out at 2.69%. Moreover, in the assay with HepG2 cells, the “increase of cell population at late apoptosis compared with untreated control” value is “around 11 fold” and the “increase of cells in early apoptotic stage compared with untreated control” value is “around 6 fold”. For the same molecule, in the assay on p21, the “upregulation of p21 expression compared to untreated cells” value is 4.52 fold. In the assay with Fas-L, the “increase of Fas-L expression compared to untreated control” value stood at 5.7 fold and the “Concentration of Fas L” value is 86.11 ± 8.05 pg/mL.
Turning to `O=C1Nc2ccc(Cl)cc2C1=Nc1ccc(-c2nc3ccccc3c(=O)[nH]2)cc1` [Compound 20, 2-[4-(5-Chloro-2-oxo-1,2-dihydro-indol-3-ylideneamino)-phenyl]-3H-quinazolin-4-one], the half-maximal inhibitory concentration (IC50) at CDK-4 was found to be 244 ± 12.2 nM. In addition, in the assay with HepG-2 cells, the “Cell cycle distribution (%) G0-G1” value was 60.3%, the “Cell cycle distribution (%) G2-M” value came to 2.86%, the “Cell cycle distribution (%) S” value came to 16.27% and the “Cell cycle distribution (%) sub-G0/G1” value worked out at 10.59%. Further, in the assay on HepG2 cells, the “Apoptosis Early” value is 4.91%, the “Apoptosis Late” value is listed as 6.75%, the “Apoptosis Total” value is 11.66% and the Necrosis is 1.91%. Moreover, in the assay with HepG2 cells, the “increase of cell population at late apoptosis compared with untreated control” value was approximately 21 fold and the “increase of cells in early apoptotic stage compared with untreated control” value was “around 6 fold”. In the assay with p21, the “upregulation of p21 expression compared to untreated cells” value turned out to be 3.9 fold. Further, in the assay on Fas-L, the “increase of Fas-L expression compared to untreated control” value is on record as 4.1 fold and the “Concentration of Fas L” value is 62.06 ± 4.62 pg/mL.

These data come from article PMC11901902, “Design, Synthesis, and Cytotoxicity Evaluation of Novel Indolin-2-One Based Molecules on Hepatocellular Carcinoma HepG2 Cells as Protein Kinase Inhibitors” (Molecules, 2025).
